IC50 data for 44 compounds are collected here from US8778951B2, “Heteroaryl compounds and their uses” (Novartis AG, priority 2009, dated 2014).

Sequence of Cdk9/cyclinT1 (P50750 whole entry): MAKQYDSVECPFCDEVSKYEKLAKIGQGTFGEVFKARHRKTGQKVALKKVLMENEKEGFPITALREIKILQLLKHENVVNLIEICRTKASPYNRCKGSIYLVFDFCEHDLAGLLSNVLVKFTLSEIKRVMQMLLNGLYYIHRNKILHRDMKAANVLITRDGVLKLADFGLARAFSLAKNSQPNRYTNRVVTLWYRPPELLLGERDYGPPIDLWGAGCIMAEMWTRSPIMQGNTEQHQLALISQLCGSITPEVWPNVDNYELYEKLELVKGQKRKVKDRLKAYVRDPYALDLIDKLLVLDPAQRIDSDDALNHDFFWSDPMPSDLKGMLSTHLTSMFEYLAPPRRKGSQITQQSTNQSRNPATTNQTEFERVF
Sequence of Cdk9/cyclinT1 (O60563 whole entry partner): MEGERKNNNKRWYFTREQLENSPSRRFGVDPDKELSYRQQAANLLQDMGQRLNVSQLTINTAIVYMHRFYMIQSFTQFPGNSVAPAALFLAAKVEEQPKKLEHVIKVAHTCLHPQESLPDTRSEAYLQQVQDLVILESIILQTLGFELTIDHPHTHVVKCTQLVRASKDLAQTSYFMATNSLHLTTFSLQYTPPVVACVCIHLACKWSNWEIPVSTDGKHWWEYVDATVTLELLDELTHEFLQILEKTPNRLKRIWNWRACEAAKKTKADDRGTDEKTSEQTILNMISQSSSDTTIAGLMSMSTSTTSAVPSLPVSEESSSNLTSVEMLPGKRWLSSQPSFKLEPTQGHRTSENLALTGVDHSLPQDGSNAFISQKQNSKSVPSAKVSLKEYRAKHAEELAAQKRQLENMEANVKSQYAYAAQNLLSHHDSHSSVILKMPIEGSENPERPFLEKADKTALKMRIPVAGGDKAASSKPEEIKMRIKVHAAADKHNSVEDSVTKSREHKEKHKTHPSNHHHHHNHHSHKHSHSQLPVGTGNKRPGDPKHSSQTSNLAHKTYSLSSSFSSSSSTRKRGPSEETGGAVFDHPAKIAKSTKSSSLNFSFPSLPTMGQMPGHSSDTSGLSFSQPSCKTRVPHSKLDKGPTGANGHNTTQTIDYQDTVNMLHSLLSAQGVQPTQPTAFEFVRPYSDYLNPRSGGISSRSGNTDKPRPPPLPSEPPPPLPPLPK

The test addresses Cdk9/cyclinT1 (Homo sapiens (Human), UniProt P50750). In words: Cdk9/CyclinT1 IMAP Protocol (fluorescence polarization kinase assay). It counts as biochemical. As to conditions: Table 2; generated using one of the two Cdk9/cyclinT1 assays (IMAP or Alpha Screen), not specified which; unit inferred. The method, then:
Cdk9/CyclinT1 IMAP Protocol
The biological activity of the compounds of the invention can be determined using the assay described below.
Cdk9/cyclinT1 is purchased from Millipore, cat #14-685. The final total protein concentration in the assay 4 nM. […] The final concentration of peptide substrate is 100 nM. The ATP substrate (Adenosine-5′-triphosphate) is purchased from Roche Diagnostics, cat#1140965. The final concentration of ATP substrate is 6 uM. IMAP (Immobilized Metal Assay for Phosphochemicals) Progressive Binding reagent is purchased from Molecular Devices, cat#R8139. Fluorescence polarization (FP) is used for detection. The 5TAMRA-cdk7tide peptide is phosphorylated by Cdk9/cyclinT1 kinase using the ATP substrate. The Phospho-5TAMRA-cdk7tide peptide substrate is bound to the IMAP Progressive Binding Reagent. The binding of the IMAP Progressive Binding Reagent changes the fluorescence polarization of the 5TAMRA-cdk7tide peptide which is measured at an excitation of 531 nm and FP emission of 595 nm. Assays are carried out in 100 mM Tris, pH=7.2, mM MgCl2, 0.05% NaN3, 0.01% Tween-20, 1 mM dithiothreitol and 2.5% dimethyl sulfoxide. IMAP Progressive Binding Reagent is diluted 1:800 in 100% 1× Solution A from Molecular Devices, cat#R7285.
General protocol is as follows: To 10 ul of cdk9/cyclinT1, 0.5 ul of test compound in dimethyl sulfoxide is added. 5TAMRA-cdk7tide and ATP are mixed. 10 ul of the 5TAMRA-cdk7tide/ATP mix is added to start the reaction. The reaction is allowed to proceed for 4.5 hrs. 60 uL of IMAP Progressive Binding Reagent is added. After >1 hr of incubation, plates are read on the Envision 2101 from Perkin-Elmer. The assay is run in a 384-well format using black Corning plates, cat#3573.
For orientation: In fluorescence polarisation assays a small probe gives low polarisation when free and higher when bound to something large.
Regarding `COC[C@@H](C)N[C@H]1CC[C@H](Nc2cc(-c3nc(NC[C@@H]4CCCOC4)ccc3Cl)c(Cl)cn2)CC1` [Compound 323, 3,5′-dichloro-N2′-(trans-4-((R)-1-methoxypropan-2-yl-amino)cyclohexyl)-N6-(((S)-tetrahydro-2H-pyran-3-yl)methyl)-2,4′-bipyridine-2′,6-diamine], the IC50 is 1 nM.

Compound `CCS(=O)(=O)NC[C@H]1CC[C@H](Nc2cc(-c3cccc(NCc4cccc(F)c4)n3)c(Cl)cn2)CC1` [Compound 79] yielded an IC50 of 7.95 nM.

As for `Clc1cnc(NC[C@@H]2CCCNC2)cc1-c1cccc(NCC2CCOCC2)n1` [Compound 300], the IC50 was determined as 219 nM.

`COC[C@@H](C)N[C@H]1CC[C@H](Nc2cc(-c3nc(NCC4CCOCC4)ccc3C(F)(F)F)c(Cl)cn2)CC1` [Compound 309] had an IC50 of 35 nM.

The compound `Clc1cnc(N[C@H]2CC[C@H](N3CCCC3)CC2)cc1-c1cnc(Cl)c(NCC2CCOCC2)n1` [Compound 225, 3-chloro-6-(5-chloro-2-(trans-4-(pyrrolidin-1-yl)cyclohexylamino)pyridin-4-yl)-N-((tetrahydro-2H-pyran-4-yl)methyl)pyrazin-2-amine] came in with an IC50 of 7.95 nM.

The compound `CC1(CNc2nc(-c3cc(NC4CCC(NC5CS(=O)(=O)C5)CC4)ncc3Cl)ccc2F)CCOCC1` (centres unmarked) [Compound 347] showed an IC50 of 1 nM.

Take `Fc1cccc(CNc2cccc(-c3cc(N[C@H]4CCCOC4)ncc3Cl)n2)c1` [Compound 150]: the IC50 is 6510 nM.

In turn, `O[C@H]1CC[C@H](Nc2cc(-c3cccc(NCC4CCCCC4)n3)c(Cl)cn2)CC1` [Compound 132] displayed an IC50 of 14.4 nM.

In the case of `CS(=O)(=O)N[C@H]1CC[C@H](Nc2cc(-c3cncc(NCC4CCOCC4)n3)c(Cl)cn2)CC1` [Compound 245], the IC50 was determined as 53.4 nM.

Turning to `CC1(C)C[C@@H](CNc2cccc(-c3cc(N[C@H]4CC[C@H](N)CC4)ncc3Cl)n2)CCO1` (single isomer, unassigned) [Compound 257], half-maximal inhibition (IC50) required 7.94 nM.

For `Clc1cnc(N[C@@H]2CCCNC2)cc1-c1cccc(NCC2CCCCC2)n1` [Compound 89], half-maximal inhibition (IC50) required 2580 nM.

`CC(=O)N[C@H]1CC[C@H](Nc2cc(-c3cncc(NCC4CCOCC4)n3)c(Cl)cn2)CC1` [Compound 244, N-(trans-4-(5-chloro-4-(6-((tetrahydro-2H-pyran-4-yl)methyl)aminopyrazin-2-yl)pyridin-2-yl-amino)cyclohexyl)acetamide] came in with an IC50 of 79 nM.

`CN1CCN(CCNc2cc(-c3cccc(NCc4cccc(F)c4)n3)c(Cl)cn2)CC1` [Compound 170] registered an IC50 of 44 nM.

`CNc1cc(-c2cccc(NCc3cccc(F)c3)n2)c(Cl)cn1` [Compound 178, 5′-chloro-N6-(3-fluorobenzyl)-N2′-methyl-2,4′-bipyridine-2′,6-diamine]: the IC50 was 103 nM.

As to `N[C@H]1CC[C@H](Nc2cc(-c3cncc(NCc4cccc(F)c4)n3)c(Cl)cn2)CC1` [Compound 101], the IC50 amounted to 7.95 nM.

`N[C@H]1CC[C@H](Nc2cc(-c3cccc(NCc4cccc(F)c4)n3)ccn2)CC1` [Compound 32] had an IC50 of 15 nM.

In turn, `CC(=O)NCCNc1cccc(-c2cc(N[C@H]3CC[C@H](O)CC3)ncc2Cl)n1` [Compound 124] registered an IC50 of 116 nM.

`O[C@H]1CC[C@@H](Nc2cc(-c3cccc(NCC4CCOCC4)n3)c(Cl)cn2)CC1` [Compound 275] had an IC50 of 146 nM.

The compound `Nc1ncc(CNc2cccc(-c3cc(N[C@H]4CC[C@H](N)CC4)ncc3Cl)n2)cn1` [Compound 109] showed an IC50 of 15.8 nM.

`N[C@H]1CC[C@H](Nc2cc(-c3cccc(NCc4cccc(OC(F)F)c4)n3)c(Cl)cn2)CC1` [Compound 36] gave an IC50 of 8.91 nM.

Compound `Fc1cccc(CNc2cccc(-c3cc(NCCc4cccnc4)ncc3Cl)n2)c1` [Compound 175] gave an IC50 of 24 nM.

In the case of `N[C@H]1CC[C@H](Nc2cc(-c3cccc(NCc4cccc(Cl)c4)n3)c(Cl)cn2)CC1` [Compound 37], the IC50 amounted to 7.95 nM.

In turn, `Fc1cccc(CNc2cccc(-c3cc(NC4CCC(F)(F)CC4)ncc3Cl)n2)c1` [Compound 149] gave an IC50 of 516 nM.

In the case of `N[C@H]1CC[C@H](Nc2ncc(Cl)c(-c3cccc(NCc4ccncc4)n3)n2)CC1` [Compound 35], the IC50 came to 55.8 nM.

Turning to `NC[C@H]1CC[C@H](Nc2cc(-c3cccc(NCC4CCCCC4)n3)c(Cl)cn2)CC1` [Compound 56], the IC50 came out at 39.3 nM.

In turn, `CN[C@H]1CC[C@H](Nc2cc(-c3cccc(NCc4cccc(F)c4)n3)c(Cl)cn2)CC1` [Compound 21, 5′-chloro-N6-(3-fluorobenzyl)-N2′-(trans-4-(methylamino)cyclohexyl)-2,4′-bipyridine-2′,6-diamine] showed an IC50 of 7.95 nM.

Consider `O=C([C@H]1CC[C@@H](Nc2cc(-c3cccc(NCc4cccc(F)c4)n3)c(Cl)cn2)C1)N1CCCC1` [Compound 213], for which the IC50 amounted to 14.2 nM.

For `N[C@H]1CC[C@H](CNc2cc(-c3cccc(NCc4cccc(F)c4)n3)c(Cl)cn2)CC1` [Compound 169], the IC50 came out at 9 nM.

`N[C@H]1CC[C@H](Nc2cc(-c3ccc(F)c(NCC4CCOCC4)n3)c(Cl)cn2)CC1` [Compound 269, N2′-(trans-4-aminocyclohexyl)-5′-chloro-5-fluoro-N6-((tetrahydro-2H-pyran-4-yl)methyl)-2,4′-bipyridine-2′,6-diamine] registered an IC50 of 7.95 nM.

Take `COCCN[C@H]1CC[C@H](Nc2cc(-c3cncc(N(C)CC4CCOCC4)n3)c(Cl)cn2)CC1` [Compound 252]: the IC50 was 7.94 nM.

On to `O[C@H]1CC[C@H](Nc2cc(-c3cccc(NCc4cccnc4)n3)c(Cl)cn2)CC1` [Compound 120], for which the IC50 was 45.6 nM.

In turn, `Fc1ccc(CNc2cccc(-c3cc(N[C@@H]4CCCNC4)ncc3Cl)n2)cc1F` [Compound 94] came in with an IC50 of 507 nM.

Take `N[C@H]1CC[C@H](Nc2cc(-c3nc(NCC4CCOCC4)ccc3Cl)c(F)cn2)CC1` [Compound 260, N2′-(trans-4-aminocyclohexyl)-3-chloro-5′-fluoro-N6-((tetrahydro-2H-pyran-4-yl)methyl)-2,4′-bipyridine-2′,6-diamine]: the half-maximal inhibitory concentration (IC50) came out at 7.94 nM.

Compound `Cc1ncc(NCC2CCOCC2)nc1-c1cc(N[C@H]2CC[C@H](N)CC2)ncc1Cl` [Compound 233, trans-N1-(5-chloro-4-(3-methyl-6-((tetrahydro-2H-pyran-4-yl)methyl)aminopyrazin-2-yl)pyridin-2-yl)cyclohexane-1,4-diamine] yielded an IC50 of 7.95 nM.

As for `CC(=O)N1CCC[C@@H](CNc2cccc(-c3ccnc(N[C@H]4CC[C@H](N)CC4)c3)n2)C1` [Compound 218], the IC50 worked out at 128 nM.

Take `Clc1cnc(NC[C@@H]2CCCN2)cc1-c1cccc(NCC2CCOCC2)n1` [Compound 304]: the IC50 turned out to be 6190 nM.

With `O[C@H]1CC[C@H](Nc2cc(-c3cccc(NC[C@@H]4CCCNC4)n3)c(Cl)cn2)CC1` [Compound 123], the IC50 worked out at 42.8 nM.

Compound `COCCN[C@H]1CC[C@H](Nc2cc(-c3cccc(NCc4cccc(F)c4)n3)c(Cl)cn2)CC1` [Compound 157] had an IC50 of 7.9 nM.

In turn, “3,5′-dichloro-N6-((tetrahydro-2H-pyran-4-yl)methyl)-N2′-(trans-4-(((R)-tetrahydrofuran-2-yl)methyl)aminocyclohexyl)-2,4′-bipyridine-2′,6-diamine [Compound 268]” returned an IC50 of 8.14 nM.

The compound `Fc1cccc(CNc2cccc(-c3cc(NCC[C@H]4CCCNC4)ncc3Cl)n2)c1` [Compound 165] came in with an IC50 of 7.9 nM.

With `O[C@H]1CC[C@H](Nc2cc(-c3cccc(NC4CCNCC4)n3)c(Cl)cn2)CC1` [Compound 8, trans-4-(5′-chloro-6-(piperidin-4-yl-amino)-2,4′-bipyridin-2′-yl-amino)cyclohexanol], the half-inhibitory concentration (IC50) was 84.8 nM.

Compound `CC1(CNc2nc(-c3cc(N[C@H]4CC[C@H](N)CC4)ncc3Cl)ccc2F)CCOCC1` [Compound 312, N2′-(trans-4-aminocyclohexyl)-5′-chloro-5-fluoro-N6-((4-methyltetrahydro-2H-pyran-4-yl)methyl)-2,4′-bipyridine-2′,6-diamine] showed an IC50 of 0.3 nM.

In the case of `OCCN[C@H]1CC[C@H](Nc2cc(-c3nc(NCC4CCOCC4)ccc3Cl)c(Cl)cn2)CC1` [Compound 259, 2-(trans-4-(3,5′-dichloro-6-((tetrahydro-2H-pyran-4-yl)methyl)amino-2,4′-bipyridin-2′-yl-amino)cyclohexylamino)ethanol], the IC50 is 7.94 nM.

For the compound `CS(=O)(=O)CCN[C@H]1CC[C@H](Nc2cc(-c3cccc(NCc4cccc(F)c4)n3)c(Cl)cn2)CC1` [Compound 20, 5′-chloro-N6-(3-fluorobenzyl)-N2′-(trans-4-(2-(methylsulfonyl)ethylamino)cyclohexyl)-2,4′-bipyridine-2′,6-diamine], half-maximal inhibition (IC50) required 7.95 nM.

By IC50 is commonly meant the concentration at which inhibition is half-maximal. The low end stands for greater potency in that assay, the high end for weaker potency in that assay.
